Measurements from ChEMBL document CHEMBL5150034, “Design, synthesis, molecular docking and pharmacological evaluation of novel triazine-based triazole derivatives as potential anticonvulsant agents” (Bioorg Med Chem Lett, 2022).

Tests used:
[1] = test system: Mus musculus; assay: Anticonvulsant activity in PTZ induced mouse model of seizure assessed as protection against seizure at 1 mmol/Kg, ip relative to control; assay type: functional
[2] = test system: Mus musculus; assay: Anticonvulsant activity in MES induced mouse model of seizure assessed as protection against seizure at 1 mmol/Kg, ip relative to control; assay type: functional
[3] = test system: Mus musculus; assay: Anticonvulsant activity in ip dosed mouse model of seizure; assay type: functional
[4] = Therapeutic index, ratio of LD50 for toxicity in ip dosed mouse to ED50 for anticonvulsant activity in ip dosed mouse model of seizure; assay type: organism-based; conditions: in vivo, read-out: TI
[5] = Toxicity in ip dosed mouse; assay type: organism-based; conditions: in vivo
[6] = Protective index, ratio of TD50 for toxicity in ip dosed mouse to ED50 for anticonvulsant activity in ip dosed mouse model of seizure; assay type: organism-based; conditions: in vivo, read-out: Ratio TD50/ED50

Compound	Activity [1]	Activity [2]	ED50 [3]	selectivity ratio [4]	TD50 [5]	selectivity ratio [6]
CC(=O)c1nnn(-c2nc(Cl)nc(Cl)n2)c1NCc1ccccc1	48%	33%	–	–	–	–
CC(=O)c1nnn(-c2nc(Cl)nc(Cl)n2)c1NCc1cc(F)c(F)c(F)c1	75%	67%	–	–	–	–
CC(=O)c1nnn(-c2nc(Cl)nc(Cl)n2)c1NCc1ccc(C)cc1	39%	25%	–	–	–	–
CC(=O)c1nnn(-c2nc(Cl)nc(Cl)n2)c1NCc1ccc(F)cc1	100%	100%	0.34 mmol/kg	3.35	0.89 mmol/kg	2.61
COc1ccc(CNc2c(C(C)=O)nnn2-c2nc(Cl)nc(Cl)n2)cc1	25%	10%	–	–	–	–
CC(=O)c1nnn(-c2nc(Cl)nc(Cl)n2)c1NCc1ccc([N+](=O)[O-])cc1	100%	100%	0.27 mmol/kg	4.14	0.83 mmol/kg	3.07
CC(=O)c1nnn(-c2nc(Cl)nc(Cl)n2)c1NCc1ccc(O)cc1	33%	18%	–	–	–	–
Cc1ccccc1-n1c(C)nc2ccccc2c1=O [METHAQUALONE]	100%	100%	1.46 mmol/kg	1.4	1.64 mmol/kg	1.12
CC(=O)c1nnn(-c2nc(Cl)nc(Cl)n2)c1NCc1ccc(Cl)cc1	100%	100%	0.39 mmol/kg	2.76	0.93 mmol/kg	2.38
CC(=O)c1nnn(-c2nc(Cl)nc(Cl)n2)c1NCc1ccc(C(F)(F)F)cc1	100%	100%	0.21 mmol/kg	5.61	0.79 mmol/kg	3.76
CC(=O)c1nnn(-c2nc(Cl)nc(Cl)n2)c1NCc1cc(F)cc(F)c1	100%	83%	0.46 mmol/kg	2.21	0.97 mmol/kg	2.1
CCCC(CCC)C(=O)O [VALPROIC ACID]	100%	100%	4.61 mmol/kg	2.59	9.63 mmol/kg	2.08
